From patent US11865102B2, “Cannabidiol preparations and its uses” (GW Research Limited, priority 2018, dated 2024)
Read-outs that look alike come from different tables or passages of the source.

Key:
[1] = test system: MES-induced tonic seizures; assay: Maximal electroshock seizure (MES) test; assay type: in vivo; settings: Mus musculus, ip, i.p. 60 minutes prior to MES, male C57Bl6 mice, sigmoidal curve, constant top, read-out: ED50 protecting 50% of mice against MES-induced tonic seizures
Procedure: This study was performed using male C57Bl6 mice, weighing between 23.6-31.2 g, which were purchased from a licensed breeder (Charles River, UK). Naïve mice were acclimatized to the procedure room in their home cages, with food and water available ad libitum. Animals were housed in groups of 2-3, in standard caging on a 12 hr/12 hr light-dark cycle. All animals were tail marked and weighed at the beginning of the study. Animals were randomly assigned to vehicle or treatment groups.
The following drugs were used in this study: synthetic CBD (SYN) and botanically derived purified CBD (BOT). The control vehicle used was (1:1:18), which was 5% Ethanol, 5% Kolliphor, 90% saline, and has been used extensively throughout similar seizure tests. All drugs were dissolved in the control vehicle for comparison. Animals were dosed (10 ml/kg) i.p. at 60 minutes prior to the administration of the maximal electroshock seizure (IVIES) test. In addition to the vehicle group, the dosage groups used for each treatment and included doses of 10, 50, 100 (Experiment 1 only), 150 and 200 mg/kg for CBD (SYN) and CBD (BOT). The number of animals in each of these groups were 10 (n=10).
Two separate experiments were undertaken using two different batches of the botanically derived purified CBD. […]

[2] = test system: sub-chronic PCP-induced deficit in novel object recognition; assay: Novel object recognition (NOR) test after sub-chronic PCP; assay type: in vivo; settings: rat dose multiplied by 0.16 (FDA dose conversion guidance)
Procedure: Female hooded-Lister rats were used for this experiment. Rats were housed in groups of 5 under standard laboratory conditions under a 12 hr light: dark cycle, with lights on at 0700 hr. Testing was carried out in the light phase. Rats were randomly assigned to two treatment groups and treated with vehicle, n=20 (distilled water, i.p.) or Phencyclidine hydrochloride (PCP), n=100 (2 mg/kg, i.p. twice daily for 7-days). PCP was dissolved in distilled water. This was followed by a 7-day wash out period before the rats were tested following acute treatment with CBD, risperidone or vehicle. […]
Following the 3 minute habituation period, the rats are given two 3 minute trials (T1 and T2) which were separated by a 1 minute inter-trial interval in the home cage during which the objects were changed. Behavior in all trials was recorded on video for subsequent blind scoring. […]
The exploration time(s) of each object (A, B, familiar and novel) in each trial were recorded using two stopwatches and the following factors were calculated: total exploration time of both objects in the acquisition trial, total exploration time of both objects in the retention trial. Habituation of exploratory activity included the exploration time, as measured by the number of lines crossed, for both trials.
All data were assessed for normality using D'Agostino and Pearson normality test. […]

[3] = test system: human iPSC-derived cerebral cortical neural stem cells (hNSCs); assay: Neurogenesis and neuronal differentiation of hNSCs (MAP2 immunocytochemistry); assay type: cell-based; settings: 0.1 and 1 μM, 3 or 5 days
Procedure: Human iPSC-derived cerebral cortical neural stem cells (hNSCs) (Axol Bioscience Inc., UK) were cultured as monolayers at a density of 1.010^4 cells/cm^2 on 100 mm diameter Petri dishes. The cells were collected from their original cryovial, suspended in Plating-XF Medium and plated on Petri dishes coated with SureBondXF 1× working solution prepared in D-PBS (without calcium or magnesium). hNSCs were incubated at 37° C. and 5% CO2 and 24 hours after of incubation, the plating medium was replaced with fresh Neural Expansion-XF Medium supplemented with the growth factors Recombinant Human EGF and Recombinant Human FGF2 (final concentration of 20 ng/mL (1×) of FGF2 and EGF). The cultures were re-fed with fresh Neural Expansion-XF supplemented with EGF and FGF2 every two days. When the hNSCs reached approximately 80% confluence, they were prepared for treatment. […]
Digital Leica LAS AF 2.2.0 software (Live Data Mode system) was used for counting Map2ab+DAPI+ cells. […] For each experimental condition, cells from 3 different tubes were each analyzed in triplicate and 3 frames were collected at 20× magnification. Data were analyzed with GraphPad Prism 6 software, version 6.05 (GraphPad, Inc.) and are expressed as mean±SEM. Statistical differences among groups were determined by two-way ANOVA followed by post hoc Bonferroni tests for comparison among means. […]

C=C(C)[C@@H]1CCC(C)=C[C@H]1c1c(O)cc(CCCCC)cc1O [Synthetic CBD, 2-[(1R,6R)-3-Methyl-6-(1-methylethenyl)-2-cyclohexen-1-yl]-5-pentyl-1,3-benzenediol]
ED50 ([1]; Experiment 1): 77.6 mg/kg
ED50 ([1]; Experiment 2): 77.4 mg/kg
Human equivalent of the rat MED [2]: 1.6 mg/kg/day
Effect on neurogenesis and neuronal differentiation of hNSCs relative to vehicle-treated cells [3]: did not have a significant effect
